Results on four molecules are retold here after patent US5366726A (priority 1992, dated 1994).

The conditions of data set [1]: TMP-SMX oral or parenteral; pentamidine isethionate parenteral; cited from earlier work.
Data set [2] relates to Pneumocystis carinii. To be noted: human, in vivo; cited from earlier work.
In data set [3] the test system is Pneumocystis carinii. In words: Example 8: randomized clinical trial, prevention of PCP. In kind it is in vivo, human. To be noted: AZT use.
Data set [4] deals with Pneumocystis carinii. The conditions noted are these: in vivo; cited from earlier work.

Take `N=C(N)c1ccc(OCCCCCOc2ccc(C(=N)N)cc2)cc1` [pentamidine isethionate]: the “patients developing severe toxicity requiring discontinuation” value in data set [1] is given as “approximately 50%”.

For the molecule `COc1cc(NCc2ccc3nc(N)nc(N)c3c2C)cc(OC)c1OC` [trimetrexate], the “relapse rates within one month” value in data set [2] is reported as “high”.

Regarding `Cc1cn([C@H]2C[C@H](N=[N+]=[N-])[C@@H](CO)O2)c(=O)[nH]c1=O` [zidovudine], the “independent reduction of PCP risk, Cox models” value in data set [3] is given as “two-fold”.

With `NCCC[C@](N)(C(=O)O)C(F)F` [DFMO, α-difluoromethylornithine], the “efficacy in rat PCP model” value in data set [4] is recorded as “not efficacious”.
